# Source: ChEMBL document CHEMBL1153997, “Discovery of oxazolo[4,5-b]pyridines and related heterocyclic analogs as novel SIRT1 activators” (Bioorg Med Chem Lett, 2009)
# How the values were obtained:
# [1] = biological target: T1, NAD-dependent protein deacetylase sirtuin-1 (Homo sapiens) (UniProt Q96EB6); test: Activation of human SIRT1 expressed in Escherichia coli BL21 (DE3) assessed as maximum activation of enzyme activity by fluorescence polarization assay
# T1 sequence (whole entry): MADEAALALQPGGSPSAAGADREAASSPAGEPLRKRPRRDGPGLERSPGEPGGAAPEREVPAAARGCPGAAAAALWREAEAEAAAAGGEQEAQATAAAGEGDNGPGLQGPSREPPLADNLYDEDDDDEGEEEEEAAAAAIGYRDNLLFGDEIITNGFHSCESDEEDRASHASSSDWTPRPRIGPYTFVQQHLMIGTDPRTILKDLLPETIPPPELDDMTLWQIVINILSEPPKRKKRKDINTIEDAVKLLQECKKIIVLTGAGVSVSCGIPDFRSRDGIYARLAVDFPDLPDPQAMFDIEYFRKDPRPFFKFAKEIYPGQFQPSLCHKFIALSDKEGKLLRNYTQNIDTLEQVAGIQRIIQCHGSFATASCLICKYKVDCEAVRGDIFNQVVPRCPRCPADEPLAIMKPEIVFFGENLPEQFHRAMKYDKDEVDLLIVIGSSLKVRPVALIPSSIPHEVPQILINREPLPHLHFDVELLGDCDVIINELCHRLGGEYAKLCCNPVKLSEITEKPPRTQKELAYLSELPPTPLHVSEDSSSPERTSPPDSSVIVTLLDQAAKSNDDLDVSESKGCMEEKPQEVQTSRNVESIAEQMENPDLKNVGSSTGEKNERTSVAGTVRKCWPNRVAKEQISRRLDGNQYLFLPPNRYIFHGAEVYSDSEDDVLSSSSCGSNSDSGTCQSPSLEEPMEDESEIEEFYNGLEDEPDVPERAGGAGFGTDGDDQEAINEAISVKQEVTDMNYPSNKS
# [2] = biological target: T1, NAD-dependent protein deacetylase sirtuin-1 (Homo sapiens); test: Activation of human SIRT1 expressed in Escherichia coli BL21 (DE3) assessed as concentration required to increase 50% enzyme activity by fluorescence polarization assay
SMILES,max activation [1],EC1.5 [2]
COc1ccc(C(=O)Nc2cc(CN3CCNCC3)cc(-c3nc4ncccc4o3)c2)cc1OC,240%,1.1 µM
COc1ccc(C(=O)Nc2cccc(-c3nc4ncccc4o3)c2)cc1OC,240%,6 µM
CN(C)CCNC(=O)c1cc(NC(=O)c2cccc(N(C)C)c2)cc(-c2nc3ncccc3o2)c1,330%,1.8 µM
CN(C)c1cccc(C(=O)Nc2ccc(-c3nc4ncccc4o3)cc2)c1,–,> 100 µM
COc1ccc(C(=O)Nc2cc(CN3CCNCC3)cc(-c3nc4ncccc4o3)c2)c(OC)c1,220%,0.5 µM
COc1ccc(C(=O)Nc2cc(CN(C)C)cc(-c3nc4ncccc4o3)c2)cc1OC,200%,1.1 µM
COc1ccc(C(=O)Nc2ccc(-c3nc4ncccc4[nH]3)cc2)cc1OC,180%,1.6 µM
CN(C)c1cccc(C(=O)Nc2cccc(-c3nc4ncccc4o3)c2)c1,207%,25 µM
COc1ccc(C(=O)Nc2ccc(-c3nc4ncccc4o3)cc2)cc1OC,–,> 100 µM
Oc1ccc(/C=C/c2cc(O)cc(O)c2)cc1,200%,–
COc1ccc(C(=O)Nc2cc(C(=O)NCCN(C)C)cc(-c3nc4ncccc4o3)c2)cc1OC,240%,0.7 µM

# Next, values leading:
max activation [1],EC1.5 [2],SMILES
273%,0.9 µM,O=C(Nc1ccccc1-c1nc2ncccc2[nH]1)c1ccc(N2CCOCC2)cc1
170%,0.9 µM,COc1ccc(C(=O)Nc2ccccc2-c2nc3ncccc3o2)cc1OC
230%,0.7 µM,CN(C)c1ccc(C(=O)Nc2ccccc2-c2nc3ncccc3[nH]2)cc1
595%,0.4 µM,COc1ccc(C(=O)Nc2ccccc2-c2nc3ccccc3[nH]2)cc1OC
314%,0.5 µM,COc1ccc(C(=O)Nc2ccccc2-c2nc3ccccc3[nH]2)cc1CN1CCOCC1
270%,0.5 µM,COc1ccc(C(=O)Nc2ccccc2-c2nc3ncccc3[nH]2)cc1OC
180%,1.7 µM,COc1cc(OC)cc(C(=O)Nc2ccccc2-c2nc3ccccc3[nH]2)c1
253%,0.3 µM,O=C(Nc1ccccc1-c1nc2ccccc2[nH]1)c1cnc2ccccc2n1
250%,4.1 µM,COc1cc(C)ccc1C(=O)Nc1ccccc1-c1nc2ncccc2[nH]1
150%,2.3 µM,COc1cc(C)ccc1C(=O)Nc1ccc(-c2nc3ncccc3[nH]2)cc1
324%,1.4 µM,COc1ccc(C(=O)Nc2cccc(-c3nc4ncccc4[nH]3)c2)cc1OC
232%,0.5 µM,COc1ccc(C(=O)Nc2cccc(-c3nc4ncccc4[nH]3)c2)c(OC)c1
820%,0.4 µM,O=C(Nc1ccc(CN2CCNCC2)cc1-c1nc2ccccc2[nH]1)c1cnc2ccccc2n1
209%,4.4 µM,CN(C)c1cccc(C(=O)Nc2ccccc2-c2nc3ncccc3o2)c1
